Patent publication US9481648B2, “Kinase inhibitors” (Respivert Limited, priority 2013, dated 2016)

Biological target: GSK 3α (Homo sapiens (Human), UniProt P49840)
Test: GSK 3α enzyme inhibition (FRET, Z-LYTE; Method 2)
Assay type: biochemical
Conditions: read-out: IC50 Values for Enzyme Inhibition GSK3α
Experimental: The enzyme inhibitory activities of compounds disclosed herein are determined by FRET using synthetic peptides labelled with both donor and acceptor fluorophores (Z-LYTE, Invitrogen Ltd., Paisley, UK).
The inhibitory activities of compounds of the invention against the GSK 3α enzyme isoform (Invitrogen), are evaluated by determining the level of activation I phosphorylation of the target peptide. The GSK3-α protein (500 ng/mL, 2.5 μL) is mixed with the test compound (2.5 μL at either 4 μg/mL, 0.4 μg/mL, 0.04 μg/mL, or 0.004 μg/mL) for 2 hr at RT. The FRET peptide (8 μM, 2.5 μL), which is a phosphorylation target for GSK3α, and ATP (40 μM, 2.5 μL) are then added to the enzyme\compound mixture and the resulting mixture incubated for 1 hr. Development reagent (protease, 5 μL) is added for 1 hr prior to detection in a fluorescence microplate reader (Varioskan® Flash, ThermoFisher Scientific).
In all cases, the site-specific protease cleaves non-phosphorylated peptide only and eliminates the FRET signal. Phosphorylation levels of each reaction are calculated using the ratio of coumarin emission (donor) over fluorescein emission (acceptor), for which high ratios indicate high phosphorylation and low ratios indicate low phosphorylation levels.
This method follows the same steps as Method 1 above, but utilises a shorter period of mixing of the test compound (105 minutes instead of 2 hours) with the GSK3-α protein. In addition, the concentrations of test compound employed are either 10 μg/mL, 1 μg/mL, 0.1 μg/mL, or 0.01 μg/mL

Chain of GSK 3α (P49840 whole entry): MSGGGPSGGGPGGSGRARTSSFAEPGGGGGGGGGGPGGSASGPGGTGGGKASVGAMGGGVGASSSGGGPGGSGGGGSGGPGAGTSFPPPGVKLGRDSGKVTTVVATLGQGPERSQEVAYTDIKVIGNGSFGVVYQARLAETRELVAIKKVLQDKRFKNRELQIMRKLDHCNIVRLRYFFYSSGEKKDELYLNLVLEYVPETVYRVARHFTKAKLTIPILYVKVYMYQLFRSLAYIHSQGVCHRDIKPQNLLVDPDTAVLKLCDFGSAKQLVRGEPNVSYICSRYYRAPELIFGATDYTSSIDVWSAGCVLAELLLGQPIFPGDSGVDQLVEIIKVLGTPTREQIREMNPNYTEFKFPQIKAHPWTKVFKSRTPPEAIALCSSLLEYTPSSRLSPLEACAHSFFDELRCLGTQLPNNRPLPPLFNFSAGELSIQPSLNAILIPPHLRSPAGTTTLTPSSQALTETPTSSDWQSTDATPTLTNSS

SMILES | IC50 [nM]
CNC(=O)c1cc(N2CCOCC2)cc(NC(=O)Nc2ccc(Oc3ccnc(Nc4cc(OC)cc(OCCOCCOCCOC)c4)n3)c3ccccc23)c1OC [Example 32, 2-Methoxy-3-(3-(4-((2-((3-methoxy-5(2-(2-(2-methoxyethoxy)ethoxy)ethoxy)phenyl)-amino)pyrimidin-4-yl)oxy)naphthalen-1-yl)ureido)-N-methyl-5-morpholinobenzamide] | 629
COCCOCCOCCOc1cc(Nc2nccc(Oc3ccc(NC(=O)Nc4cc(C(C)(C)C)cc(C(=O)NCc5ccccc5)c4OC)c4ccccc34)n2)cc(OC)c1 [Example 38, N-Benzyl-5-(tert-butyl)-2-methoxy-3-(3-(4-((2-((3-methoxy-5-(2-(2-(2-methoxyethoxy)-ethoxy)ethoxy)phenyl)amino)pyrimidin-4-yl)oxy)naphthalen-1-yl)ureido)benzamide] | 10700
C#Cc1cc(Nc2nccc(Oc3ccc(NC(=O)Nc4cc(C(C)(C)C)cc(C(=O)NC)c4OC)c4ccccc34)n2)cc(C(=O)N[C@@H](C)CN2CCOCC2)c1 [Example 60, (S)-5-(tert-Butyl)-3-(3-(4-((2-((3-ethynyl-5-((1-morpholinopropan-2-yl)carbamoyl)phenyl)amino)pyrimidin-4-yl)oxy)naphthalen-1-yl)ureido)-2-methoxy-N-methylbenzamide] | 539
COc1cc(Nc2cc(Oc3ccc(NC(=O)Nc4cc(C(C)(C)C)cc(NS(C)(=O)=O)c4OC)c4ccccc34)ccn2)cc(C(=O)NCCN2CC[S+]([O-])CC2)c1 [85(j), 3-[[4-[[4-[[5-tert-Butyl-3-(methanesulfonanido)-2-methoxyphenyl]-carbamoylamino]-1-naphthyl]oxy]-2-pyridyl]amino]-5-methoxy-N-[2-(1-oxo-1,4-thiazinan-4-yl)ethyl]benzamide] | 736

Further compounds by falling IC50, results first:

IC50 [nM] | SMILES
3400 | COc1cc(CO)cc(Nc2cc(Oc3ccc(NC(=O)Nc4cc(C(C)(C)C)cc(NS(C)(=O)=O)c4OC)c4ccccc34)ccn2)c1 [84(f), 1-[5-tert-Butyl-3-(methanesulfonamido)-2-methoxyphenyl]-3-[4-[[2-[3-(hydroxymethyl)-5-methoxyanilino]-4-pyridyl]oxy]-1-naphthyl]urea]
3210 | COCCOCCOCCOc1cc(Nc2nccc(Oc3ccc(NC(=O)Nc4cc(C(C)(C)C)cc(Nc5ncccn5)c4OC)c4ccccc34)n2)cc(OC)c1 [Example 28, 1-(5-(tert-Butyl)-2-methoxy-3-(pyrimidin-2-ylamino)phenyl)-3-(4-((2-((3-methoxy-5-(2-(2-(2-methoxyethoxy)ethoxy)ethoxy)phenyl)amino)pyrimidin-4-yl)oxy)naphthalen-1-yl)urea]
2620 | COCCOCCOCCOc1cc(Nc2nccc(Oc3ccc(NC(=O)Nc4cc(C(C)(C)C)cc(NS(=O)(=O)C(F)(F)F)c4OC)c4ccccc34)n2)cc(OC)c1 [Example 71]
2140 | COCCOCCOCCOc1cc(Nc2nccc(Oc3ccc(NC(=O)Nc4cc(C(C)(C)C)cc(C#N)c4OC)c4ccccc34)n2)cc(OC)c1 [Example 22, 1-(5-(tert-Butyl)-3-cyano-2-methoxyphenyl)-3-(4-((2-((3-methoxy-5-(2-(2-(2-methoxy-ethoxy)ethoxy)ethoxy)phenyl)amino)pyrimidin-4-yl)oxy)naphthalen-1-yl)urea]
1160 | COc1cc(Nc2cc(Oc3ccc(NC(=O)Nc4cc(C(C)(C)C)cc(NS(C)(=O)=O)c4OC)c4ccccc34)ccn2)cc(C(=O)NCCN2CCCN(C)CC2)c1 [Example 85(p), 3-[[4-[[4-[[5-tert-Butyl-3-(methanesulfonamido)-2-methoxyphenyl]-carbamoylamino]-1-naphthyl]oxy]-2-pyridyl]amino]-5-methoxy-N-[2-(4-methyl-1,4-diazean-1-yl)ethyl]benzamide]
51 | COc1cc(Nc2nccc(Oc3ccc(NC(=O)Nc4cc(C(C)(C)C)cc(NS(C)(=O)=O)c4OC)c4ccccc34)n2)cc(C(=O)NCCOCCOCCC(=O)O)c1 [Example 26]
